Laboratory results: patent US7482427B2, “Positive modulator of bone morphogenic protein-2” (BioSurface Engineering Technologies, Inc., priority 2002, dated 2009)

Tests used:
[1] = system: C2C12 cells; experiment: Alkaline phosphatase (ALP) activity assay in C2C12 cells; format: cell-based, Mouse; conditions: for induction of ALP by growth factor in the presence of B2A2: B2A2 1000 ng/mL, FGF-2 50 ng/mL, VEGF 25 ng/mL, TGF-β1 50 pg/mL, 3 days
Description: Alkaline phosphatase (ALP) Activity Assay. C2C12 cells and C3H10T½ cells were cultured at 37° C. in a humidified atmosphere of 5% CO2 and 95% air, with DMEM/F12 medium supplemented with 10% serum, penicillin/streptomycin. […] At 4-5 days post induction, ALP activity was determined as described by Akiyama and colleagues (Akiyama et al. 1997, Exp Cell Res 235(2):362-9.) with modifications. Briefly, cells were washed once with phosphate-buffered saline (PBS) and lysed with 0.1% Triton×100 in 10 mM Tris HCl, pH 9.0. Protein concentration was determined using the BCA Protein Assay Kit (Pierce Biotechnology, Rockford, Ill.). Then ALP activity was measured by adding ALP buffer (1 M diethanolamine, 0.5 mM MgCl2, 1 mg/mL p-nitrophenylphosphate, pH 9.0), incubating in 37° C., and absorbance (405 nm) read at 15, 30 and 60 minutes using a microplate spectrophotometer (Molecular Devices, Sunnyvale, Calif.). The activity was expressed as O.D. per mg protein per hour.
B2A2 was tested to determine whether B2A2 enhanced the biological effects of CHO-produced rhBMP-2. […] Points represent means of quintuplicate determinations±SD.
B2A2 was tested in combination with other growth factors including FGF-2, VEGF, and tGF-β1 for induction of ALP in C2C12 cells. […] Mouse C2C12 cells were cultured as described for FIG. 1A, treated with a combination of various growth factors plus or minus B2A2, incubated for 3 days, and then assayed for ALP activity as described for FIG. 1A. […] Bars represent means of quintuplicate determinations±SD.
Mouse C2C12 cells were cultured as before and B2A2 (1000 ng/mL) was added to some wells. After a 45 minute incubation all wells were rinsed with fresh medium and the medium was replaced. […] After 5 days ALP activity was measured. […] Data is the means of triplicates±SD.
In FIG. 5A, a polystyrene surface of 96-well plates were first coated by silyl-heparin (open bars), followed by a 1 μg/mL solution of B2A2 (solid bars) in PBS for (1 hr at 37° C.) and rinsed in PBS and dried at room temperature. […] ALP activity was measured five days later. Data is the means of triplicates±SD.
In FIG. 5B, stainless steel wafers were first coated with silyl-heparin (open bars) followed by 100 μg/mL B2A2 in PBS as a second coating (solid bars) and rinsed in PBS and dried at room temperature. Wafers were coated separately in wells of a 24-well plate and transferred to a fresh untreated plate prior to cell seeding.
ALP activity was measured five days later. Data is the means of triplicates±SD.

[2] = system: BMPR and ActivinR isoforms; experiment: Solid phase receptor binding assay, panel of receptor/Fc chimeras; conditions: insulin adsorbed to plates; Endostatin-Fc as unrelated chimeric protein
Description: Receptor binding assays. Binding to BMP receptors in a solid phase binding assay. B2A2 was absorded onto ELISA plates to saturation, soluble BMP receptor-immunoglobin Fc fusion proteins were added, and bound receptor was detected by HRP-conjugated anti-Fc antibody and colorimetric assay, values shown are background substracted. Specific binding of B2A2 to different receptor isoforms of the BMPR and Activin Receptor family were tested, employing the receptor-Fc chimeras shown. […] Bound receptor was displaced by the addition of rhBMP-2 at the levels indicated.
The compound of Example 2 was tested for specific binding to Bone Morphogenic Protein-2 receptors. Referring now to FIG. 12, results of solid phase receptor binding assays utilizing purified receptor/Fc chimeric molecules are illustrated. The chimeras are recombinant constructs of the soluble ectodomain of various receptor molecules (BMPR and ActivinR isoforms) fused to the carboxyl-terminal of the human IgG1 Fc region via a polypeptide liner. ELISA plates were coated with B2A2 or control compounds, soluble chimeric receptor/Fc antibody and quantified with a colorimeteric ELISA.

[3] = system: C3H10T½, MC3T3 cells or hFOB; experiment: Cell migration across simulated wound margin, positive control (cell line not specified); format: cell-based; conditions: positive control reference, FGF-2 50 ng/mL, 6 hours (data not shown)
Description: Cell migration. For studies involving migration across a wound margin, the cells were grown in vitro and used when approximately 90% confluent. A simulated wound was made by scraping cells away from the cultureware surface. The cultures were rinsed to remove unbound cells, and then incubated in DMEM:F12 medium containing 2% newborn calf serum with or without peptide. FGF-2 (50 ng/mL) was used as a positive control reference material. The cells were allowed to migrate for 6 hours after which the cells were fixed in buffered formalin. Migration was monitored via phase contrast microscopy. Migrating cells were those that had migrated across the site of the simulated wound margin.
B2A2-K-NS was tested for its ability to induce cells of preosteoblast origin to migrate to a stimulated wound margin. Murine C3H10T½, MC3T3 cells or hFOB were grown to near confluency in vitro. A stimulated wound was made by scraping the cells away from the substrate. The cells were allowed to migrate for 6 hours after which migration was monitored via microscopy. Statistical significance was determined using ANOVA followed by post hoc testing using multiple comparison versus control group (Dunnett's Method). […] Table 3 summarizes the increase in migrating cells at the simulated wound margin induced by about 0.2 to 2.0 μg/mL B2A2-K-NS.

Row | Substance | induction of ALP by growth factor in the presence of B2A2 [1] | other results
1 | TGF-B: growth factor purchased from Sigma Aldrich, tested in combination with B2A2 | failed to induce ALP | 
2 | Insulin |  | binding of negative controls [2]: did not bind
3 | FGF-2: growth factor, positive control reference material for migration (50 ng/mL) | failed to induce ALP | migrating cells compared to controls [3]: significant increase in migrating cells
4 | benzyl-tetra(dimethylsilylmethyl)oxycarbamoyl-heparin [silyl-heparin, reference compound] |  | ALP activity on coated polystyrene surface ([1]; silyl-heparin coating alone, BMP-2 50 ng/mL in solution, 5 days): potentiates BMP-2 activity
5 | VEGF | failed to induce ALP | 
